# Laboratory results from patent publication US10232043B2, “Photoactivated molecules for light-induced modulation of the activity of electrically excitable cells and methods of using the same” (UNIVERSITY OF SOUTHERN CALIFORNIA, priority 2015, dated 2019).
# Entries after “also recorded” stand apart in the source; their conditions may differ.
# How the values were obtained:
# INS cells = assay: Whole cell patch clamp, current-clamp membrane potential under light; type: cell-based, rat; conditions: for light-induced increase of membrane potential: 488 nm
# Method: (§1) Membrane potential was monitored using whole cell patch clamp in current-clamp mode. Cultured cells (INS and HEK293) were plated on a glass-bottomed culture dishes 1-3 days prior to recording. Cells were incubated in standard extracellular solution with or without 10 μM RubpyC17 compound for approximately 1.5-2 minutes, then washed and incubated with standard extracellular solution without additional supplementation, or with 2-5 mM ascorbate, 100 μM sodium ferrocyanide, or 100-200 μM potassium ferricyanide, as indicated. The chamber was transferred to the microscope stage. Extracellular solution consisted of 140 mM NaCl, 2.8 mM KCl, 10 mM HEPES, 1 mM MgCl2, 2 mM CaCl2, 10 mM glucose, pH adjusted to 7.3, and osmolarity adjusted to 300-310. Conventional whole-cell patch clamp recordings were performed with an EPC-9 amplifier and Pulse software (HEKA Electronics). Pipette electrodes of 1.8-3.5 Mohm were fire polished before use. Intracellular solution consisted of: 145 mM KCl, 10 mM NaCl, 1 mM MgCl2, 1 mM EGTA, 2 mM ATP, 0.3 mM GTP and 10 mM HEPES, pH adjusted to 7.3 and osmolarity adjusted to 290-300 mOsm. To monitor changes in membrane voltage/potential, cells were patch clamped in current-clamp mode. Access resistances were in the range of 3-8 Mohm. Using Pulse, membrane potentials were recorded before, during and after illumination by the argon ion laser at 488 nm with an irradiance value of 0.458 mE s^−1 m^−2 or by a xenon lamp source through a 470/40 nm bandpass excitation filter with an irradiance value of 0.480 mE s^−1 m^−2. The duration of illumination varied and the timing is indicated by bars on the figures.
# Initial attempts were tied to INS and HEK cells, both cells that are not excitable under normal conditions (INS cells were maintained in low glucose <3 mM to prevent action potentials). The cells were incubated in 10 μM of RubpyC17 compound for approximately 2 minutes then washed with standard extracellular solution, supplemented with 2 mM ascorbate. It was hypothesized that when RubpyC17 is incorporated into the cell membrane, illumination would induce accumulation of negative charges at the outer face of the cell membrane, due to transfer of an electron from ascorbate to the photoactivated RubpyC17 resulting in membrane depolarization. To monitor the plasma membrane potential, the cells were patch-clamped in whole-cell configuration in current-clamp mode and membrane voltages were recorded while illuminating the cell at 488 nm (0.46-0.48 mE s^−1 m^−2), though other wavelengths are useful, depending on the embodiment.
# leech ganglion neurons = assay: Leech ganglion neurons, light-induced action potential firing; type: cell-based, Hirudo verbana; conditions: ex vivo leech ganglia
# Method: Adult leeches Hirudo verbana will be obtained from Niagara Medical Leeches, Inc. (Westbury, N.Y., USA). Groups (20-30) of animals will be kept in glass aquaria with artificial pond water (36 mg/L Instant Ocean salts; Aquarium Systems, Mentor Ohio), in a temperature-controlled room at 16° C. and a 12:12 h light:dark cycle. At the time of experiments, leeches will weigh 1-3 g. Before dissection, the leech will be anesthetized in ice-cold leech saline. Leech saline has the following composition (in mM per liter): NaCl—115, KCl—4, CaCl2—1.8, MgCl2—2, HEPES—10, D-Glucose—5 (Sigma-Aldrich, USA). Individual ganglia will be dissected from the mid-body segments M6-M12, and pinned down in Sylgard-filled dissection box. Medial dorsal longitudinal incision will be made and the blood will be flushed away. Connective tissue and the blood vessel overlaying the ganglion chain will be incised. Dissected ganglia will be transferred to a Petri dish, pinned down in paraffin with six stainless steel pins (dorsal side up). PVNs will be microinjected into the extracellular space of the ganglion with a glass micropipette. Intracellular recording will be performed by penetrating the Retzius neurons with sharp glass electrodes (20-30 MOhm) filled with 3M potassium acetate. […] Neuronal firing will be recorded before and after the injections.
# HEK293T cells = assay: Whole cell patch clamp, current-clamp membrane potential under light; type: cell-based, human
# Method: as §1, with “The duration of illumination varied and the timing is indicated by bars on the figures.” left out
# Initial attempts were tied to INS and HEK cells, both cells that are not excitable under normal conditions (INS cells were maintained in low glucose <3 mM to prevent action potentials). […] To monitor the plasma membrane potential, the cells were patch-clamped in whole-cell configuration in current-clamp mode and membrane voltages were recorded while illuminating the cell at 488 nm (0.46-0.48 mE s^−1 m^−2), though other wavelengths are useful, depending on the embodiment. […]
# [1] = aqueous solution; cited from earlier work
compound,measurement,setting,value
"CCCCCCCCCCCCCCCCCc1ccnc(-c2cc(C)ccn2)c1.F[P-](F)(F)(F)(F)F.F[P-](F)(F)(F)(F)F.[Ru+2].c1ccc(-c2ccccn2)nc1.c1ccc(-c2ccccn2)nc1 [RubpyC17, [Ru(bpy)2(bpy-C17)](PF6)2]",continuous illumination required to reach maximum light-triggered depolarization,"INS cells; 0.46-0.48 mE s−1 m2, FIGS. 18B-18F",~30 s
same,light-induced increase of membrane potential,"INS cells; INS cells, 10 μM ~2 min, 2 mM ascorbate",15.9 ± 4.6 mV
same,light-induced increase of membrane potential,"INS cells; INS cells, absence of ascorbate",9.8 ± 4.5 mV
same,light-triggered depolarization with non-permeating ions,"INS cells; INS cells, cesium and NMDG instead of potassium and sodium",still persisted
same,illumination time at which cells undergo membrane potential change,"INS cells; oxidants (ferricyanide) present, FIG. 18A",≥ 10 s
same,reversibility of light-induced depolarization,INS cells; presence of reductants,appears to be irreversible
same,illumination time at which cells undergo membrane potential change,"INS cells; reductants (ascorbate) present, INS and HEK293T (FIG. 18A)",≥ 25 s
same,light-induced action potential firing,leech ganglion neurons,respond to illumination by firing action potentials; also recorded: light-induced increases in action potential firing
same,light-induced hyperpolarization,HEK293T cells; 100 uM ferricyanide in extracellular solution,20.9 ± 4.9 mV
same,light-induced depolarization with ferrocyanide as reductant,"HEK293T cells; HEK293T, 0.1 mM ferrocyanide",light-induced depolarization was also observed
same,light-induced depolarization,"HEK293T cells; HEK293 cells, presence of ascorbate",14.6 ± 2.4 mV
same,electron transfer rate ket to oxidant ferricyanide,[1],~6.5e+09 M⁻¹ s⁻¹
